ChEMBL document CHEMBL4842396, “Synthesis of 2-Prenylated Alkoxylated Benzopyrans by Horner-Wadsworth-Emmons Olefination with PPARα/γ Agonist Activity” (ACS Med Chem Lett, 2021)
Active and inactive are the calls of the source. The calls are words filed in the database; no cut-off is given here.

Assays:
[1] = target: T1, Peroxisome proliferator-activated receptor alpha (Homo sapiens) (UniProt Q07869); experiment: Agonist activity at human PPARalpha at 10 uM; conditions: filed as agonist
T1 sequence (whole entry): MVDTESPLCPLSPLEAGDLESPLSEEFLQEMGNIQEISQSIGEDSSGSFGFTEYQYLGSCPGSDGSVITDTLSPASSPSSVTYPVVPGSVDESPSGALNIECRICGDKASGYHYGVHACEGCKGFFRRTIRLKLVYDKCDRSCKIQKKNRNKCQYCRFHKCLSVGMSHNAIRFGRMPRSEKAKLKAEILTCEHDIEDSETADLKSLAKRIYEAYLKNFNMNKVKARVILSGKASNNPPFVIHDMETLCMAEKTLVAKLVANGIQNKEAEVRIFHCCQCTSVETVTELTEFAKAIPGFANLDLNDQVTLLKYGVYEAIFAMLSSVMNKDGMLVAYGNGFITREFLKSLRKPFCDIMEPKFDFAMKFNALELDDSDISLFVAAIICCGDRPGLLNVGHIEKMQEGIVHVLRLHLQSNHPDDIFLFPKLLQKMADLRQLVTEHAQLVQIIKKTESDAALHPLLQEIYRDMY

[2] = target: T2, Peroxisome proliferator-activated receptor gamma (Homo sapiens) (UniProt P37231); experiment: Agonist activity at human PPARgamma at 10 uM; conditions: filed as agonist
T2 sequence (whole entry): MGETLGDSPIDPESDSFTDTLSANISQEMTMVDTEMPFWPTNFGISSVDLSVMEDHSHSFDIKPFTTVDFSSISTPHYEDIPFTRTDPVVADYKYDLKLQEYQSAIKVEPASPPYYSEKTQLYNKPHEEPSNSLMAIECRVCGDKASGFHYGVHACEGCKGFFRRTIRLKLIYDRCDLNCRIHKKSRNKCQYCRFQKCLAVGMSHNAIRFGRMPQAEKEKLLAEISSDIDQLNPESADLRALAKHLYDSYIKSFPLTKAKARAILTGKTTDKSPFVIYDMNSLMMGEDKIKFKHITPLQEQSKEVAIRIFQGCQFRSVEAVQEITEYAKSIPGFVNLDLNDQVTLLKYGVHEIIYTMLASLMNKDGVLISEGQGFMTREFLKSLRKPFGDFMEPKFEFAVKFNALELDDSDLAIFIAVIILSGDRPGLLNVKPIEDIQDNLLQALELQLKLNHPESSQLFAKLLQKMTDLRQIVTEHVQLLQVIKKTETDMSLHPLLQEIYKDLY

[3] = species: Homo sapiens; experiment: Selectivity for agonist activity at human PPARalpha over agonist activity at human PPARgamma

SMILES | Activity [1] | Activity [2] | Selectivity ratio [3]
CCOC(=O)/C(=C/CC/C(C)=C/CCC1(C)CCc2cc(OCc3ccccc3)ccc2O1)OCC(F)(F)F (configuration not stated) | Active | Active | 
CCOC(=O)/C(=C/CC/C(C)=C/CCC1(C)CCc2cc(OCc3ccc(F)cc3)ccc2O1)OCC (configuration not stated) | Active | Active | 
CCOC(=O)/C(=C/CC/C(C)=C/CCC1(C)CCc2cc(OCc3ccccc3)ccc2O1)OCC (configuration not stated) | Active | Active | 
CCO/C(=C\CC/C(C)=C/CCC1(C)CCc2cc(OCc3ccccc3)ccc2O1)C(=O)O (configuration not stated) | Active | Active | 0.64
CCOC(=O)/C(=C/CCC1(C)CCc2cc(OCc3ccccc3)ccc2O1)OCC(F)(F)F (configuration not stated) | Active | Active | 
Cc1cccc(Nc2cc(Cl)nc(SCC(=O)O)n2)c1C | Active |  | 
CC1(CC/C=C(\OCC(F)(F)F)C(=O)O)CCc2cc(OCc3ccccc3)ccc2O1 (configuration not stated) | Active | Active | 1.73
CCCOc1ccc2c(c1)CCC(C)(CC/C=C(\C)CC/C=C(\OCC)C(=O)OCC)O2 (configuration not stated) | Active | Active | 
